According to patent US6906175B2, “Production of adenine nucleotide translocator (ANT), novel ANT ligands and screening assays therefor” (priority 1998, dated 2005):

Legend:
[1] = target: T1, bovine mitochondria (ANT) (Bos taurus, UniProt P02722); test: 125I-compound 24 competition binding (Tube Assay), beef heart mitochondria; conditions: FIGS. 11, 13, 16
T1 construct: from tissue; host or cells: bovine heart mitochondria
T1 sequence (P02722 2-298 limits assumed): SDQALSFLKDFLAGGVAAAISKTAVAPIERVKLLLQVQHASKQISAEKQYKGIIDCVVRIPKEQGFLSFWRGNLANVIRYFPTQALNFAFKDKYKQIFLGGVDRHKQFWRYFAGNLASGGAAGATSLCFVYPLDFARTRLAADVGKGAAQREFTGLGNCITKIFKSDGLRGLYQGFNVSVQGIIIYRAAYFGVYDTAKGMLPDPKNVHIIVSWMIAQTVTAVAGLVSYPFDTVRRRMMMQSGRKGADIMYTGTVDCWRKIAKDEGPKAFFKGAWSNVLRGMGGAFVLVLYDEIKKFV
Description: Bovine mitochondria were prepared as follows: Essentially all of the fat and cholesterol […] was removed from two bovine hearts which were then cut into 1-inch cubes. The cubes were ground in a meat grinder using the fine setting. Three hundred (300) […] portions of the ground heart were weighed out and, to each was added 400 ml of Isolation Buffer (IB; 250 mM sucrose, 1 mM sodium succinate, 0.2 mM K^+EDTA, 10 mM Tris-base, pH 7.8). (All buffers were filter sterilized, and column buffers were degassed, and, unless otherwise noted, all steps were carried out at 0 to 4° C. on ice or in pre-cooled rotors and centrifuges.) The preparations were mixed in a blender two times for 15 seconds on high setting and, in between and after blends, the pH was adjusted to 7.8 with 2M Tris-base. The homogenate was centrifuged for 20 minutes at 1,200×g, and the supernatant was poured through two layers of cheese cloth and adjusted to pH 7.8 with 2M Tris-base. The supernatant was then centrifuged for 30 minutes at […]. The supernatant was decanted, and the buff-colored outer pellet was dislodged with about 10 ml of IB and discarded. The brown inner pellet (heavy mitochondria) was resuspended in IB (about 10 ml per pellet). The pellets were homogenized in a glass-teflon homogenizer (2 passes at high drill speed). Samples were combined and centrifuged for 30 minutes at 11,000×g. The supernatant was decanted, and the pellets were resuspended in 60 ml of IB per 900 gm of ground heart. This centrifugation step was repeated and the pellets were finally resuspended in IB (60 ml per 900 gm of ground heart). One kilogram of beef heart typically yields about one (1) gram of mitochondria
(§1) The mitochondrial preparations were divided into aliquots (typically, 50μl for T. ni mitochondria or 20 μl for bovine mitochondria) and then either used directly in assays or flash frozen and stored at −80° C. The total protein content in the mitochondrial preparations was determined using the enhanced protocol (30 minutes at 60° C.; see http://www.ruf.rice.edu/˜bioslabs/methods/protein/BCA.html) of the bicinchoninic acid (BCA) assay (available in kit form from Pierce, Rockford, Ill.).
In the “Tube Assay,” mitochondria (from about 1 to 10 μg of total protein) were resuspended in 100 μl of Tris-KCl buffer with 0.1% BSA, pH 7.4. ^125I-labeled compound 24 (Example 11) was added to a final concentration of 0.5 nM. When used, competitors were added at these concentration ranges: unlabeled atractyloside or compound 24 final concentration from 5 nM to 10 μM; unlabeled ADP (a lower affinity competitor) was added at a final concentration of 500 nM to 1 mM.
The reaction mixes were incubated on ice for 60 minutes and then pelleted by centrifugation (approximately 16,000×g) for 11 minutes at 4° C.
Unbound ^125I-compound 24 was removed by aspiration. The pellets were contact-washed with Tris-KCl buffer, pH 7.4, and recentrifuged. The resultant pellets were aspirated and the radioactivity (dpm) in each was determined by gamma counting.

[2] = target: T2, T. ni/huANT3 mitochondria (Homo sapiens, UniProt P12236); test: 125I-compound 24 competition binding (Tube Assay), mitochondria from T. ni cells expressing huANT3; conditions: mitochondria from T. ni cells expressing huANT3; FIGS. 12, 14, 15
T2 construct: expressed in transfected cells; host or cells: Trichoplusia ni cells infected with recombinant baculovirus (cells prepared by PharMingen); isolated mitochondria
T2 sequence (P12236 1-298): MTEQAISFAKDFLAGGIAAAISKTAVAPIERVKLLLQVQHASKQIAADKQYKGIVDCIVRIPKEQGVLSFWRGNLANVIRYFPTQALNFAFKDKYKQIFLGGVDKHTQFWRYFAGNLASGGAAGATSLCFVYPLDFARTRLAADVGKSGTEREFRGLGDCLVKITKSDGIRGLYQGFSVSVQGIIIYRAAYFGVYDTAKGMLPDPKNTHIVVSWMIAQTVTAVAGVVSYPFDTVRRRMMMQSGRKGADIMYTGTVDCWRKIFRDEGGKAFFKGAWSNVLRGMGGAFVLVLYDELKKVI
Description: Atractyloside analogs (Example 6; Table 1; see also Examples 7-9) were also used in pseudo-homologous competition binding assays using T. ni/huANT3 mitochondria or bovine mitochondria. Mitochondria from noninfected T. ni cells, or T. ni cells infected with a baculovirus expressing huANT3 (see Example 3) were prepared as follows: […] cells were prepared by a subcontractor (PharMingen, San Diego, Calif.) as portions of about 250 mg of cells per tube. Each portion was suspended in 1 ml of MSB with protease inhibitors (leupeptin, final concentration 10 ug/ml; pepstatin, final concentration 10 ug/ml; aprotinin, final concentration, 2 ug/ml; phenylmethylsulfonyl fluoride, [PMSF], final concentration, 100 μM; all from Sigma Chemical Co., St. Louis, Mo.). The resuspended cell suspensions were frozen and thawed twice, then homogenized using a rotating teflon-coated probe and a close-fitting glass container (10 passes). The cellular homogenate was centrifuged (3,700 rpm, approximately 1,500×g) at 4° C. for 5 minutes; this supernatant from the first spin was saved. The pellet was washed with about 500 μl of MSB with protease inhibitors, centrifuged (3,800 rpm, approximately 1,600×g) at 4° C. for 5 minutes, and supernatant from this spin was combined with the supernatant from the first spin. […]
as §1, with “Ill.). […]” for “Ill.).”
Unbound ^125I-compound 24 was removed by aspiration. […] The resultant pellets were aspirated and the radioactivity (dpm) in each was determined by gamma counting.

[3] = target: T3, GST-huANT3 recombinantly produced in E. coli (membranes) (Homo sapiens, UniProt P12236); test: Saturation binding of [32P]ATP to E. coli membranes, huANT3-producing cells; conditions: for cpm bound by: huANT3-Producing Cells: 25 μg membrane protein, 2 hr room temperature
T3 construct: Gly-Ser-Pro-Gly-Ile-Leu-Met, where “Met” indicates the amino acid encoded by the translation initiation codon of huANT3; made in house; host or cells: E. coli (crude membrane preparation)
T3 sequence (P12236 1-298): T2 sequence (P12236 1-298)
Description: (§2) Following arabinose induction, transformed or sham transformed (vector only) E coli were collected by centrifugation at 2000 g for 10 min. The bacterial pellets were resuspended in MSB, to which lysozyme (100 μg/ml) was added. After 20 min at room temperature, the lysates were subjected to one freeze-thaw cycle followed by sonication as described above. The resultant membrane preparation was used for binding assays.
(§3) […] The membranes with bound ATP were sedimented by centrifugation at 5000 g for 5 min, and washed once with binding buffer. Membrane pellets were then mixed with 5 ml scintillation cocktail and counted.

[4] = tested on: sham transformed E. coli membranes; test: Saturation binding of [32P]ATP to E. coli membranes, sham transformed (vector only) cells; conditions: 25 μg membrane protein, 2 hr room temperature
Description: as §2, §3

[5] = target: T4, GST-huANT3 (Homo sapiens, UniProt P12236); test: ATP binding to agarose-glutathione beads incubated with solubilized bacterial lysate
T4 construct: Gly-Ser-Pro-Gly-Ile-Leu-Met, where “Met” indicates the amino acid encoded by the translation initiation codon of huANT3; made in house; host or cells: E. coli (solubilized lysate, captured on agarose-glutathione beads)
T4 sequence (P12236 1-298): T2 sequence (P12236 1-298)
Description: Agarose-glutathione beads were incubated with solubilized (using Dnase, Rnase and 0.1% Triton X-100, see Example 1, section D) bacterial lysate (see Example 2), and substituted for the E. coli membranes in binding assays. Best results (i.e., more specific binding) were seen when the beads were preincubated with bovine serum albumin (BSA, 0.1%) Specific ATP binding (1,070 cpm) was also observed in this experiment (compare to nonspecific binding of 279 cpm in the presence of 10 mM non-radiolabeled ATP).

[6] = target: T5, Sf9/huANT3 mitochondria (Homo sapiens, UniProt P12236); test: Homologous competition of [32P]ATP binding to Sf9/huANT3 mitochondria; conditions: 25 μg mitochondrial protein per assay; FIG. 7
T5 construct: expressed in transfected cells; host or cells: Spodoptera frugiperda Sf9 cells infected with recombinant baculovirus; isolated mitochondria
T5 sequence (P12236 1-298): T2 sequence (P12236 1-298)
Description: To estimate maximal binding and the extent of overexpression of the huANT3, 25 μg of membrane protein was incubated with varying amounts of [^32P]ATP (1-500 μM) in binding buffer (120 mM KCl, 10 mM Tris, 1 mM EDTA, pH 7.4) for 2 hr at room temperature. The membranes with bound ATP were sedimented by centrifugation at 5000 g for 5 min, and washed once with binding buffer. Membrane pellets were then mixed with 5 ml scintillation cocktail and counted.
Sf9 cells expressing huANT3 were grown in spinner flasks. The cells were harvested by centrifugation at 2,000 g for 5 min. The cell pellet was resuspended in MSB and subjected to 3 freeze-thaw cycles. Cell membranes and debris were removed by centrifugation at 600 g for 5 min; mitochondria were collected by centrifuging the supernatant at 20,000 g for 15 min. The mitochondrial pellets were suspended in MSB, and used for binding assays as described above. Homologous competition of [^32P]ATP binding was performed using 25 μg mitochondrial protein per assay.

[7] = Binding of [32P]ATP to Ni-agarose bead material from control (uninfected) Sf9 cells; conditions: 2 hr
Description: (§4) His-tagged huANT3 protein was purified from baculovirus-infected Sf9 solubilized cell lysates using Ni-agarose magnetic beads; Sf9 cells that had not been infected were used as negative controls. The beads were incubated with [^32P]ATP (1 or 100 μM) for 2 hr. The beads were washed and then counted to determine the amount of bound ATP. […] Binding saturation had essentially been achieved with 1 μM ATP.

[8] = target: T6, His-tagged huANT3 (Homo sapiens, UniProt P12236); test: Binding of [32P]ATP to purified His-tagged huANT3 on Ni-agarose magnetic beads; design: made in house; host or cells: baculovirus-infected Sf9 cells; conditions: for cpm bound by: huANT3-Producing Cells: 2 hr
T6 sequence (P12236 1-298): T2 sequence (P12236 1-298)
Description: as §4

## Nc1ncnc2c1ncn2[C@@H]1O[C@H](COP(=O)(O)OP(=O)(O)O)[C@@H](O)[C@H]1O [ADP, adenosine diphosphate]
[1]
  competitive inhibition of 125I-compound 24 binding (in words): low affinity
[2]
  competitive inhibition of 125I-compound 24 binding (in words): low affinity

## Nc1ncnc2c1ncn2[C@@H]1O[C@H](COP(=O)(O)OP(=O)(O)OP(=O)(O)O)[C@@H](O)[C@H]1O [ATP, adenosine triphosphate]
[3]; [ATP] 0.1 uM
  cpm bound by: huANT3-Producing Cells: 191 cpm
[3]; [ATP] 0.5 uM
  cpm bound by: huANT3-Producing Cells: 49 cpm
[3]; [ATP] 1.0 uM
  cpm bound by: huANT3-Producing Cells: 325 cpm
[3]; [ATP] 10 uM
  cpm bound by: huANT3-Producing Cells: 263 cpm
[3]; [ATP] 50 uM
  cpm bound by: huANT3-Producing Cells: 2,727 cpm
[3]; [ATP] 100 uM
  cpm bound by: huANT3-Producing Cells: 5,772 cpm
[3]; [ATP] 500 uM
  cpm bound by: huANT3-Producing Cells: 9,715 cpm
[3]; from saturation binding data of Table 2, read-out: affinity of the ATP binding
  Kd: ~6 µM
[4]; [ATP] 0.1 uM
  cpm bound by: Sham Transformed Cells: 109 cpm
[4]; [ATP] 0.5 uM
  cpm bound by: Sham Transformed Cells: 95 cpm
[4]; [ATP] 1.0 uM
  cpm bound by: Sham Transformed Cells: 147 cpm
[4]; [ATP] 5.0 uM
  cpm bound by: Sham Transformed Cells: 123 cpm
[4]; [ATP] 10 uM
  cpm bound by: Sham Transformed Cells: 214 cpm
[4]; [ATP] 50 uM
  cpm bound by: Sham Transformed Cells: 549 cpm
[4]; [ATP] 100 uM
  cpm bound by: Sham Transformed Cells: 718 cpm
[4]; [ATP] 500 uM
  cpm bound by: Sham Transformed Cells: 2,140 cpm
[5]; beads preincubated with BSA 0.1%
  Specific ATP binding: 1,070 cpm
[5]; in the presence of 10 mM non-radiolabeled ATP
  nonspecific binding: 279 cpm
[6]
  Kd: 13 µM
[7]; [ATP] 1.0 uM
  cpm bound by: Control (Uninfected) Cells: 43 cpm
[7]; [ATP] 100 uM
  cpm bound by: Control (Uninfected) Cells: 30 cpm
[8]
  ATP concentration at which binding saturation had essentially been achieved: 1 µM
[8]; [ATP] 1.0 uM
  cpm bound by: huANT3-Producing Cells: 149 cpm
[8]; [ATP] 100 uM
  cpm bound by: huANT3-Producing Cells: 160 cpm
